These results are taken from ChEMBL document CHEMBL3826929, “Discovery and Preclinical Evaluation of BMS-711939, an Oxybenzylglycine Based PPARα Selective Agonist” (ACS Med Chem Lett, 2016).

Converted amounts (≈) assume the structure as drawn.

Series [1] concerns Syrian golden hamster. As to the kind of experiment: Decrease in liver triglyceride level in high fat-diet fed syrian golden hamster model of dyslipidemia administered qd through oral gavage measured after 21 days by FPLC analysis. The note with it: Mesocricetus auratus. Type of series: functional, organism-based.
For series [2], the target named is Cytochrome P450 3A4 (Homo sapiens, UniProt P08684). As to the kind of experiment: Inhibition of CYP3A4 in human TC5 cells. The format is ADME, cell-based.
Chain of Cytochrome P450 3A4 (P08684 whole entry): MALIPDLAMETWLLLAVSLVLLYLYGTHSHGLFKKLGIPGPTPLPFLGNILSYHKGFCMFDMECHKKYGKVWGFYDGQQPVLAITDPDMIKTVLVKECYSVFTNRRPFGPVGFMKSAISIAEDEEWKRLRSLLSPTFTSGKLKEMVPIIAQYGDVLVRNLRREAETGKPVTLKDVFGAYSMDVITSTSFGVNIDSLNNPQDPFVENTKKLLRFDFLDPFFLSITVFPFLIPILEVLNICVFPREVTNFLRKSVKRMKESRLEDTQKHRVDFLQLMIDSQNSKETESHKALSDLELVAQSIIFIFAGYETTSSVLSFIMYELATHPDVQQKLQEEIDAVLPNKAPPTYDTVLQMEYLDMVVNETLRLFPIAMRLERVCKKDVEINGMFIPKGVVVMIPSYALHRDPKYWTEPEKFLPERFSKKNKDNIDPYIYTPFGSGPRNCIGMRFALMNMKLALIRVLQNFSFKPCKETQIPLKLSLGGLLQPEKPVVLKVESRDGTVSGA
In series [3] the target is T1, Cytochrome P450 2C9 (Homo sapiens, UniProt P11712). Description: Inhibition of CYP2C9 (unknown origin). Type of series: ADME.
T1 sequence (P11712 whole entry): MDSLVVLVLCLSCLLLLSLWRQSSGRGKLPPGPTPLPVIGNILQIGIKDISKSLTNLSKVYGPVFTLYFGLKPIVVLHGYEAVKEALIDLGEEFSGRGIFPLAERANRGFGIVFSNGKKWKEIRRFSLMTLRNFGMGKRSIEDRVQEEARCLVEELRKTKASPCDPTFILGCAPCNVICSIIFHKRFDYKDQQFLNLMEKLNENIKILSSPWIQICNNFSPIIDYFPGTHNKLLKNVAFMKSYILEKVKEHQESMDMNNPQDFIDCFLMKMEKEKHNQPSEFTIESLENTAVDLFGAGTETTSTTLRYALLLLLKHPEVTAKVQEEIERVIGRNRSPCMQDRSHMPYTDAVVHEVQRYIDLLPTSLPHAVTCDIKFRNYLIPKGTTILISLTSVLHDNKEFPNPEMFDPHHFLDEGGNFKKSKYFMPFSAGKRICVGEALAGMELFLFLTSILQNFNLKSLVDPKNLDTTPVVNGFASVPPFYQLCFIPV
For series [4], the target named is T1, Cytochrome P450 2C9. Description: Inhibition of CYP2C9 in human TC5 cells. Type of series: ADME, cell-based.
Series [5] can be described thus: Protein binding in mouse plasma. Type of series: ADME, cell-free. The note with it: read-out: PPB (converted).
Series [6] deals with hERG (KCNH2) (Homo sapiens, UniProt Q12809). As to the kind of experiment: Inhibition of human ERG at 30 uM by patch-clamp method.
Chain of hERG (KCNH2) (Q12809 whole entry): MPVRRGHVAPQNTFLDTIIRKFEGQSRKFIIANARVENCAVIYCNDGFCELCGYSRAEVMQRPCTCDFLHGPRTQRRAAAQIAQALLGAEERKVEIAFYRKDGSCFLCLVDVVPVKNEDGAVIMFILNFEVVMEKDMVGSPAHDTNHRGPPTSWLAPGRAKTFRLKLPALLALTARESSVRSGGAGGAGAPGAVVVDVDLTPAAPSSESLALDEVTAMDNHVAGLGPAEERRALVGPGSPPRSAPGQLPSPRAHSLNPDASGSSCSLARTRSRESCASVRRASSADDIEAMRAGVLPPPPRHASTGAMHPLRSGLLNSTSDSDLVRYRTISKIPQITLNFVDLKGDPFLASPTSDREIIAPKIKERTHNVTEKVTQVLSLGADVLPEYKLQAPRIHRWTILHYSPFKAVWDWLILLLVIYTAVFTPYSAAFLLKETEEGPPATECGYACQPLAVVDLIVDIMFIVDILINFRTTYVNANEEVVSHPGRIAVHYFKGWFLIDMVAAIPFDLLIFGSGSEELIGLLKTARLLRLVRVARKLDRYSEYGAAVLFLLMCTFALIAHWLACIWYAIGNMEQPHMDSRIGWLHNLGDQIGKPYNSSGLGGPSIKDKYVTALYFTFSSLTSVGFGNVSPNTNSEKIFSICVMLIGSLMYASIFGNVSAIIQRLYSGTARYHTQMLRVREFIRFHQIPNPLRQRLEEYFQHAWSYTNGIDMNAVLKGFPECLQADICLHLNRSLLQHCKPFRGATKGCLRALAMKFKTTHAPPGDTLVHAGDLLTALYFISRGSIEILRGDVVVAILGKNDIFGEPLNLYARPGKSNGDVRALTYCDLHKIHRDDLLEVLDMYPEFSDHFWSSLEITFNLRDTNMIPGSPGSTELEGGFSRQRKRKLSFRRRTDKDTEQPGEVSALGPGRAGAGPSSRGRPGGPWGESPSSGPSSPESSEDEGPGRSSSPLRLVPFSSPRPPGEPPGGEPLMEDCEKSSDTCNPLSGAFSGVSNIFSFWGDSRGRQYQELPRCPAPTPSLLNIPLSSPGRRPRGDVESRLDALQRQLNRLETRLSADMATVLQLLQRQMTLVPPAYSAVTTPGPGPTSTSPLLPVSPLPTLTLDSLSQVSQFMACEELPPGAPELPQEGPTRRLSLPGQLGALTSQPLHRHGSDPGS
The nature of series [7]: Aqueous solubility of the compound at pH 7.2. The format is physicochemical. The note with it: buffer.
The nature of series [8]: Agonist activity at hamster PPAR-alpha. Also on record: species or system Cricetinae.
For series [9], the system named is Salmonella typhimurium. Description: Genotoxicity in Salmonella typhimurium TA98 up to 5000 ug by Ames test. Type of series: toxicity, organism-based. The note with it: salmonella enterica subsp. enterica serovar typhimurium. (In general: The Ames test detects mutagens through reverse mutation in bacteria.)
The nature of series [10]: Half life in Balb/c mouse at 5 mg/kg, iv. Type of series: ADME, organism-based. The note with it: in vivo.
Series [11] addresses T2, Peroxisome proliferator-activated receptor alpha (Homo sapiens) (UniProt Q07869).
T2 sequence (whole entry): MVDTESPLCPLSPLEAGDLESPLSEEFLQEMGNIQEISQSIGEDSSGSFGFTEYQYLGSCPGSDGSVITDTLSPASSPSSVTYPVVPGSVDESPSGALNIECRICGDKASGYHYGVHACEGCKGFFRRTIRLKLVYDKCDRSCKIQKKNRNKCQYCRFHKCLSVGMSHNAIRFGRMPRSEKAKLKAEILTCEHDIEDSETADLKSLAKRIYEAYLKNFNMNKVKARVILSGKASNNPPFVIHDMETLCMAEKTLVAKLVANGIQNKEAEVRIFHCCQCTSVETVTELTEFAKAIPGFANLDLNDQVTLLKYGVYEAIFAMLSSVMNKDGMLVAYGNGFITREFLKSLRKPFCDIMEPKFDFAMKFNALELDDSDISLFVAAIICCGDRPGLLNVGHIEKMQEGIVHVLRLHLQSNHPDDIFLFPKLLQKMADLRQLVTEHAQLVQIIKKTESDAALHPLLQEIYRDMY
Description: Intrinsic activity at PPAR-alpha (unknown origin) relative to fenofibric acid.

A short description of series [12]: Volume of distribution at steady state in cynomolgus monkey at 1 mg/kg, iv. The format is ADME, organism-based, Macaca fascicularis. The note with it: in vivo, read-out: Vdss.
For series [13], the target named is Cytochrome P450 2B6 (Homo sapiens, UniProt P20813). As to the kind of experiment: Inhibition of CYP2B6 (unknown origin). Type of series: ADME.
Chain of Cytochrome P450 2B6 (P20813 whole entry): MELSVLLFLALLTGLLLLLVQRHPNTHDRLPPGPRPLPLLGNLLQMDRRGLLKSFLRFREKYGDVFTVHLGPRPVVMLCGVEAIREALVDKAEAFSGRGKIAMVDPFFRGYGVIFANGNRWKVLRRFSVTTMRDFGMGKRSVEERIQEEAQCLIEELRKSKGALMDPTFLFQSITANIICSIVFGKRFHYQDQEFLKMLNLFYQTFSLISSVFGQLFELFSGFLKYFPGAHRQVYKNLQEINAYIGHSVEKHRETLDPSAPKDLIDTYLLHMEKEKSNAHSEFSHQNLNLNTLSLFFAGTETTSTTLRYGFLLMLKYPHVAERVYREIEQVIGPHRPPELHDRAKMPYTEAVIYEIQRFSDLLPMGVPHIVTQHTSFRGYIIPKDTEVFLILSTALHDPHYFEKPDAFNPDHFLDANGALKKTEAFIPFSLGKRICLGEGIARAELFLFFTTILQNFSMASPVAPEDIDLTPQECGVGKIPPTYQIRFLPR

For orientation: IC50 means the midpoint of a concentration-inhibition curve. As a reminder, the inhibition is the drop in the measured response relative to a control, in per cent. The term solubility denotes how much of the substance goes into solution per volume. Usually EC50 stands for the concentration giving half of the maximal effect. One may read the half-life as the time needed for the level to fall by half in the phase considered. In the case of `COC(=O)N(CC(=O)O)Cc1cc(OCc2nc(-c3ccc(Cl)cc3)oc2C)ccc1F`, the results for the Activity entry in series [1] and in series [9] were “Dose-dependent effect” and “Non-toxic”, respectively. Also, the half-inhibitory concentration (IC50) in series [2] is greater than 150 µM; in [3], greater than 40 µM; in [4] it was greater than 150 µM; in [13] it was greater than 40 µM. In series [5], the fraction unbound is 0.002. In series [6], this molecule gave an inhibition at 30 µM of 4%. In addition, in series [7], the solubility is 367 µg/mL (≈ 793 µM). This molecule also showed a concentration giving a half-maximal response (EC50) in series [8] of 0.178 µM. The molecule further gave a half-life in [10] of 1.8 h. The Intrinsic activity in series [11] is greater than 50%. Besides, the Vd in series [12] was determined as 3.9 L/kg.
